Data from patent US20140235643A1, “NOVEL QUINOXALINE INHIBITORS OF PI3K” (GILEAD CALISTOGA LLC, priority 2011, published 2014).

What was measured:
[1] = target: T1, PI3Kα (p110α/p85α) (Homo sapiens, UniProt P42336); test: PI3K biochemical enzyme assay (Adapta universal kinase assay), p110 alpha/p85 alpha; details: for inhibition at 1 µM / inhibition at 10 µM: read-out: PI3Kα % inhib; for IC50: Table 2, PI3k biochemical assays, read-out: p110α/p85α IC50
T1 construct: purchased Invitrogen
Procedure: (§1) This example describes a method of obtaining in vitro activity data concerning the effect of compounds of on various PI3K isoforms. The effect of compounds on the kinase activity of Class I PI3Ks was measured at Invitrogen by using the Adapta® universal kinase assay. It was a homogenous, fluorescent based immunoassay for the detection of ADP produced by the kinase reaction. This assay can be divided into two phases: a kinase reaction phase, and an ADP detection phase. In the kinase reaction phase, all components required for the kinase reaction were added to the well, and the reaction was allowed to incubate for 60 minutes. After the reaction, a detection solution consisting of a europium labeled anti-ADP antibody, an Alexa Fluor® 647 labeled ADP tracer, and EDTA (to stop the kinase reaction) was added to the assay well. ADP formed by the kinase reaction (in the absence of an inhibitor) displaced the Alexa Fluor® 647 labeled ADP tracer from the antibody, resulting in a decrease in the TR-FRET signal.
(§2) ADP formation was determined by calculating the emission ratio from the assay well. The emission ratio was calculated by dividing the intensity of the tracer (acceptor) emission by the intensity of the Eu (donor) emission at 615 nm as shown in the equation below.
(§3) The Test Compounds were screened in 1% DMSO (final) in the well. All Substrate/Kinase Mixtures were diluted to a 2× working concentration in the appropriate Kinase Buffer as described below for the individual kinase:
(§4) The 2× p110 alpha/p85 alpha/PIP2:PS mixture was prepared in 50 mM HEPES pH 7.5, 100 mM NaCl, 0.03% CHAPS, 3 mM mgCl2, 1 mM EGTA. The final 10 μL Kinase Reaction consisted of 0.3-1.5 ng p110 alpha/p85 alpha and 50 μM PIP2:PS in 32.5 mM HEPES pH 7.5, 50 mM NaCl, 0.015% CHAPS, 1.5 mM mgCl2, 0.5 mM EGTA. After the 1 hour Kinase Reaction incubation, 5 μL of Detection Mix was added.
(§5) The Detection mix consisted of EDTA (30 mM), Eu-anti-ADP antibody (30 nM) and ADP tracer. All ATP Solutions were diluted to a 4× working concentration in water and used at the Km apparent concentrations for each individual kinase.

[2] = target: T2, PI3Kβ (p110β/p85α) (Homo sapiens, UniProt P42338); test: PI3K biochemical enzyme assay (Adapta universal kinase assay), p110 beta/p85 alpha; details: for IC50: Table 2, PI3k biochemical assays, read-out: p110β/p85α IC50
T2 construct: purchased Invitrogen
T2 sequence (P42338 whole entry): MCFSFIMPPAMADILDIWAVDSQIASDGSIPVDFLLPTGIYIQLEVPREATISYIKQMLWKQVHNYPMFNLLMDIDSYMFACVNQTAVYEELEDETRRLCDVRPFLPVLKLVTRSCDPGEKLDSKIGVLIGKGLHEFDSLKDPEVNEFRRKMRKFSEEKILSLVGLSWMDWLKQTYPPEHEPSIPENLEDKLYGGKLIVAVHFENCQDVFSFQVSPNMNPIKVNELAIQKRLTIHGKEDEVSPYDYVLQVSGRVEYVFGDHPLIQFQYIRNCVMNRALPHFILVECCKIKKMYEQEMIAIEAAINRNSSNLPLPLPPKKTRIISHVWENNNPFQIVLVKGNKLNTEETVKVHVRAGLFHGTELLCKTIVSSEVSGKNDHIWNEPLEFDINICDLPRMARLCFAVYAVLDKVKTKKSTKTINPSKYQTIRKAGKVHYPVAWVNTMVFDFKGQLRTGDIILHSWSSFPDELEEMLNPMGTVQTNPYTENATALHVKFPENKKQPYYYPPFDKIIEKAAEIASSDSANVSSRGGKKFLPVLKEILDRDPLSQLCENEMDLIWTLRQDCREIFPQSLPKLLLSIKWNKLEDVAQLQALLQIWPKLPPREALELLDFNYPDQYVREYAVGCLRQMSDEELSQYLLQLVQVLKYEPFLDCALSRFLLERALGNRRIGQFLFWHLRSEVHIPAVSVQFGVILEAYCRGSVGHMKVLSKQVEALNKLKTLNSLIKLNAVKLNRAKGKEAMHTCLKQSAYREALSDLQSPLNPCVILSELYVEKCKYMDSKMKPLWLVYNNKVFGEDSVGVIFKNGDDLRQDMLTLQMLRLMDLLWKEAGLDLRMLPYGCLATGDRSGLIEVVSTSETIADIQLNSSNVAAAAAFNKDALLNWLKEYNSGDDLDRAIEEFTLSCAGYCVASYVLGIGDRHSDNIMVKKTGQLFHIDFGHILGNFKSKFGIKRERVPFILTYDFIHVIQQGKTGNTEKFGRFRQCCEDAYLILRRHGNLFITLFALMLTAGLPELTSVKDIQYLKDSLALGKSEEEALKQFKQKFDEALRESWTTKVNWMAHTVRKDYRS
T2 sequence (P27986 whole entry partner): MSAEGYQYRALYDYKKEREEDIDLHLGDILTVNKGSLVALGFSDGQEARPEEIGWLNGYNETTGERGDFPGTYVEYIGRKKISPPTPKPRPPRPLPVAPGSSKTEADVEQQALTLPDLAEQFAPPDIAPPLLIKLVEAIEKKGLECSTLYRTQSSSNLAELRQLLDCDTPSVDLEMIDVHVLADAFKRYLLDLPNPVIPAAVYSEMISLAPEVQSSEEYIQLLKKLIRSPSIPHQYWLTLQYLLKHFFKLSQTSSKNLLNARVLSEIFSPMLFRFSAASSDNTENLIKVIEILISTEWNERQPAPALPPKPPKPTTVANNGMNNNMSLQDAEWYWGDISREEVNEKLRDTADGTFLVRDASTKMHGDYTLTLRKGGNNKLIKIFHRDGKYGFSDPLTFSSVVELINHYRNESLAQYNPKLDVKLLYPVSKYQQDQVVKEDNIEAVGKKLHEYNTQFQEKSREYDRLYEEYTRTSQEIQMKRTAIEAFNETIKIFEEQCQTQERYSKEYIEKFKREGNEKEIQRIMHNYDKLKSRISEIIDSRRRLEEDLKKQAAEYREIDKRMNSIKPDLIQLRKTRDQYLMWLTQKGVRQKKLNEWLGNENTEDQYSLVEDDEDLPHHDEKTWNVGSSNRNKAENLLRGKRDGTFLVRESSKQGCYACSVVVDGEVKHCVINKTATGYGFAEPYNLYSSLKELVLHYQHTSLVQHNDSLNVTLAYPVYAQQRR
Procedure: as §1, §2, §3
The 2× p 110beta/p85 alpha/PIP2:PS mixture was prepared in 50 mM HEPES pH 7.5, 100 mM NaCl, 0.03% CHAPS, 1 mM EGTA, 3 mM mgCl2, and 2 mM DTT. The final 10 μL Kinase Reaction consisted of 35.4 ng p110 beta/p85 alpha and 50 μM PIP2:PS. After the 1 hour Kinase Reaction incubation, 5 μL of Detection Mix was added.
as §5

[3] = target: T3, PI3Kδ (p110δ/p85α) (Homo sapiens, UniProt O00329); test: PI3K biochemical enzyme assay (Adapta universal kinase assay), p110 delta/p85 alpha; details: for inhibition at 0.1 µM / inhibition at 1 µM / inhibition at 10 µM: read-out: PI3Kδ % inhib; for IC50: Table 2, PI3k biochemical assays, read-out: p110δ/p85α IC50
T3 construct: purchased Invitrogen
T3 sequence (O00329 whole entry): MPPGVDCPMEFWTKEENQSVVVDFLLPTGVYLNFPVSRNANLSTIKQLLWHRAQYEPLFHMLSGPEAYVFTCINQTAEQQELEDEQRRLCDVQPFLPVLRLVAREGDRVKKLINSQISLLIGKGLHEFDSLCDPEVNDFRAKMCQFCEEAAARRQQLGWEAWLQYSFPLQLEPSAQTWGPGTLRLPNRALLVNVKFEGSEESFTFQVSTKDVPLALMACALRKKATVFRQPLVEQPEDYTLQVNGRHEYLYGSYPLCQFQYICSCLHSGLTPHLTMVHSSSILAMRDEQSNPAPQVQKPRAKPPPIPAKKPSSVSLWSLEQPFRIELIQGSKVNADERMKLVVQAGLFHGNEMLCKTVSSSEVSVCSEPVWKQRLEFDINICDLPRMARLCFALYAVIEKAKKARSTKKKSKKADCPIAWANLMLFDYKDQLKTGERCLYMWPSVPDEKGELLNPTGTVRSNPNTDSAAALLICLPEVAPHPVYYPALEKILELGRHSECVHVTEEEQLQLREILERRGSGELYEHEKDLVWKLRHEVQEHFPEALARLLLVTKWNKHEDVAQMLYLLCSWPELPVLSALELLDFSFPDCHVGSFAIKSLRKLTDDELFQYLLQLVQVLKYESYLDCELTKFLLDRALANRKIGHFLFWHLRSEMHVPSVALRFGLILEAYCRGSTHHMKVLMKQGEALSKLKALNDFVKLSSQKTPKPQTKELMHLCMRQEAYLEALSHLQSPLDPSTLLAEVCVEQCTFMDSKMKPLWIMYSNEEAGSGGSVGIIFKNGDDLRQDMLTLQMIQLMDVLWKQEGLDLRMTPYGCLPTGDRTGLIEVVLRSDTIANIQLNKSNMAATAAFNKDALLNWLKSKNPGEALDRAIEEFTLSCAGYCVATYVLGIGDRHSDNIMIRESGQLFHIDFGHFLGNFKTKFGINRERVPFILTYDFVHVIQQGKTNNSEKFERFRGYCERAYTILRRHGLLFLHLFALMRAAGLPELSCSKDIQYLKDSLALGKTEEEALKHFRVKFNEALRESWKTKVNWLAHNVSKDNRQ
T3 sequence (P27986 whole entry partner): as the sequence (P27986 whole entry partner) above
Procedure: as §1, §2, §3
as §4, with “p110 delta/p85” for “p110 alpha/p85”, “of 0.35-2.6” for “of 0.3-1.5”, “incubation, […]” for “incubation, 5”
as §5

[4] = target: T4, PI3Kα (Mus musculus, UniProt P42337); test: PI3Kα-dependent cell-based assay: PDGF-BB mediated AKT phosphorylation in Swiss-3T3 cells; details: PDGF-BB-induced AKT phosphorylation, Swiss-3T3 fibroblasts
T4 construct: endogenous in cells; host or cells: Swiss-3T3 fibroblasts (ATCC)
Procedure: PDGF-BB-induced AKT phosphorylation in Swiss-3T3 fibroblasts is mediated by p110α. C5a-induced AKT phosphorylation in RAW-264 murine macrophages is mediated exclusively by p110γ.
PI3Kα-Dependent Cell-Based Assay: PDGF-BB Mediated AKT Phosphorylation in Swiss-3T3 Cells
Swiss-3T3 fibroblasts (American Type Culture Collection) were cultured with DMEM containing 10% fetal bovine serum and the antibiotics penicillin and streptomycin. Cells were seeded on a 96-well Tissue Culture Plate at 25,000 cells/well and allowed to reach at least 90% confluency. The cells were starved for 2 to 12 hr in 0.1% FBS containing medium and then were pretreated with inhibitors or DMSO for 2 hr. The cells were stimulated for 15 min with 10 ng/ml PDGF-BB (Cell Signaling Technology) at 37° C. in 5% CO2. The culture medium was removed and cells were fixed for 20 min at room temperature by addition of 100 μl of 4% cell fixing buffer to each well. AKT phosphorylation and total AKT was detected by ELISA.
Detection of Phospho-Ser-473 AKT and Total AKT by ELISA
The fixed cells were washed twice with 150 μl of wash buffer (WB) and quenched by incubating with 100 μl of Quenching Buffer for 20 min at room temperature. Cells were washed once with 150 μl WB and blocked by incubating with 100 μl of Blocking Buffer for 1 hr at room temperature. Cells were incubated with 50 μl of primary antibody diluted in Blocking Buffer, either phospho-Ser-473 AKT specific (1:150 dilution) or total-AKT antibody (1:200 dilution), to each specific well. The negative control wells contained 50 μl of Blocking Buffer. Plates were sealed with plate sealing film and incubated overnight at 4° C. Cells were washed twice with 150 μl WB followed by addition of 50 μl per well of DELFIA secondary antibody (50 ng/well, diluted in DELFIA Assay Buffer). After 2 hr incubation at room temperature, cells were washed 4 times with 150 μl of Europium Wash Solution followed by addition of 100 μl of DELFIA Enhancing Solution to each well. Plates were incubated for 5 min in the dark and fluorescent signal was read using SpectraMax M5™ (Molecular Devices). Total AKT level was determined to verify equal cell number per well. The average background fluorescence values from wells that received vehicle control in the absence of PDGF-BB or C5a were subtracted from all the values of experimental conditions. Fluorescence values corresponding to phosphorylated AKT from wells that received PDGF-BB or C5a were normalized to 100% and compound effect was plotted as % change relative to the vehicle control.

T1 sequence (P42336 whole entry): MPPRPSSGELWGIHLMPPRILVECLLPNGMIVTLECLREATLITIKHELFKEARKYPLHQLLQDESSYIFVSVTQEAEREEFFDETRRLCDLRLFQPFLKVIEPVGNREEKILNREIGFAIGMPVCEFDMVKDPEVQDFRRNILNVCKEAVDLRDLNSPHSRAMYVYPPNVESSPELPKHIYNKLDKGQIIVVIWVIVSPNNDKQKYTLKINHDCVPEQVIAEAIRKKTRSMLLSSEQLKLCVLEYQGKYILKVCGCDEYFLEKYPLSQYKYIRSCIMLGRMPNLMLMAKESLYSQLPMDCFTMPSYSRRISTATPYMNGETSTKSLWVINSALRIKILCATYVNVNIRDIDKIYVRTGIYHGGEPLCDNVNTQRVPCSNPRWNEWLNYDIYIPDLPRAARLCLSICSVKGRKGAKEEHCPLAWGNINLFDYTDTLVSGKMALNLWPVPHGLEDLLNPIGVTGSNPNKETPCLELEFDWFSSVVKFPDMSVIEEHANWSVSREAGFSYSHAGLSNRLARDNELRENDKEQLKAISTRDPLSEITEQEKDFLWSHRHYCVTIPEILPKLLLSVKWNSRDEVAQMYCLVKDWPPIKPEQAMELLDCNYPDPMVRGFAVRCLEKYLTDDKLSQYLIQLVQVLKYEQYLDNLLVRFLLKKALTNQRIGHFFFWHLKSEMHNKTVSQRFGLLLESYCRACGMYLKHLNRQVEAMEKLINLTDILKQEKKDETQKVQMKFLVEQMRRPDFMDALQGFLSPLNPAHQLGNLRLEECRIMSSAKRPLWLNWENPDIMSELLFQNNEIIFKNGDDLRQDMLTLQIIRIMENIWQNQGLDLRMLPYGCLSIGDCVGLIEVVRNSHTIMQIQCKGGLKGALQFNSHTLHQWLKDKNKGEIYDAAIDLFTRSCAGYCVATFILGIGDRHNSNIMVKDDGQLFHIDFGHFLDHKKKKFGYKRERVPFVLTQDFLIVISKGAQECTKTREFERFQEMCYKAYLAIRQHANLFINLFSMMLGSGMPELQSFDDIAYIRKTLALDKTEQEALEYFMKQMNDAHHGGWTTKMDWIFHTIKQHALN
T1 sequence (P27986 whole entry partner): as the sequence (P27986 whole entry partner) above

| SMILES | inhibition at 1 µM [1] | inhibition at 10 µM [1] | IC50 [1] | inhibition at 10 µM ([2]; read-out: PI3Kβ % inhib) | IC50 [2] | inhibition at 0.1 µM [3] | inhibition at 1 µM [3] | inhibition at 10 µM [3] | IC50 [3] | EC50 [4] | inhibition at 1 µM ([2]; 1 μM, read-out: PI3Kβ % inhib) |
| --- | --- | --- | --- | --- | --- | --- | --- | --- | --- | --- | --- |
| CC(Nc1ncnc2[nH]cnc12)c1nc2ccccc2nc1-c1cc(F)cc(F)c1 (stereo not drawn) [Compound Q2, N-{1-[3-(3,5-difluorophenyl)quinoxalin-2-yl]ethyl}-9H-purin-6-amine] | – | 47% | > 10000 nM | 8% | > 10000 nM | 20% | 82% | 100% | 58 nM | > 20000 nM | – |
| Cc1cccc(-c2nc3ccccc3nc2C(C)Nc2ncnc3[nH]cnc23)c1 (stereo not drawn) [Compound Q3] | – | 65% | > 10000 nM | 25% | > 10000 nM | 48% | 86% | 100% | 36 nM | > 20000 nM | – |
| Cc1cccc2nc(C(C)Nc3nc(N)nc4[nH]cnc34)c(-c3ccccc3)nc12 (stereo not drawn) [Compound Q4] | 18% | 92% | 2590 nM | 77% | 1130 nM | 77% | 86% | 100% | 2 nM | 17700 nM | – |
| Cc1cccc2nc(C(C)Nc3nc(N)nc4[nH]cnc34)c(-c3ccc(F)cc3)nc12 (stereo not drawn) [Compound Q5] | 41% | 97% | 404 nM | 85% | 459 nM | – | 69% | 99% | 2 nM | 14300 nM | 23% |
| CCC(Nc1ncnc2[nH]cnc12)c1nc2cccc(F)c2nc1-c1ccccc1 (stereo not drawn) [Compound Q9] | – | 72% | > 10000 nM | 60% | > 10000 nM | 72% | 86% | 100% | 37 nM | > 20000 nM | – |

Second part, the compound after the results:

| inhibition at 1 µM [1] | inhibition at 10 µM [1] | IC50 [1] | inhibition at 10 µM ([2]; read-out: PI3Kβ % inhib) | IC50 [2] | inhibition at 0.1 µM [3] | inhibition at 1 µM [3] | inhibition at 10 µM [3] | IC50 [3] | EC50 [4] | inhibition at 1 µM ([2]; 1 μM, read-out: PI3Kβ % inhib) | SMILES |
| --- | --- | --- | --- | --- | --- | --- | --- | --- | --- | --- | --- |
| 18% | 89% | 6920 nM | 72% | > 10000 nM | 74% | 85% | 100% | 14 nM | > 20000 nM | – | CC(Nc1ncnc2[nH]cnc12)c1nc2ccccc2nc1-c1ccccc1 (stereo not drawn) [Compound Q1] |
| – | 77% | > 10000 nM | 75% | > 10000 nM | 71% | 83% | 100% | 17 nM | > 20000 nM | – | CCC(Nc1ncnc2[nH]cnc12)c1nc2ccccc2nc1-c1ccccc1 (stereo not drawn) [Compound Q12] |
